{"source": "patent US20060046972A1", "about": "“Cytotoxic nucleoside analog compound 003 for treating cancer” (Parker Hughes Institute, priority 2004, published 2006)", "key": {"[1]": {"test_system": "MMTV/Neu transgenic mice kept pregnant or lactating", "test": "Lactation induced murine model of Her 2 positive breast cancer, MMTV/Neu transgenic mice", "assay_type": "in vivo", "protocol": "MMTV/Neu transgenic mice were treated with Compound 003 that was added to the daily food of the mice at an average daily dose level of 50 mg/kg/day for the duration of the experiment. Mice were screened for the tumor formation every other day. Tumor-free survival was analyzed using life table statistics as previously reported. The protective anti-cancer activity of Compound 003 was evaluated according to the rise of the survival rate and prolongation of the tumor-free survival of the experimental animals as compared with the control animals. Statistical Significance was determined using the Kaplan Meier Log-Rank test.\nIn the second experiment, in order to maintain the development of mammary gland and maximum expression of the MMTV-driven neu transgene, all female transgenic mice were kept either pregnant or lactating by continued housing with male FVB mice. Treatments commenced when female mice were 6-weeks of age. Vehicle-treated control mice (N=16) developed breast cancer faster than vehicle treated virgin transgenic mice with a median cancer-free survival time of 169.5 days (Mean=160.8±9.3 days). Compound 003 prolonged the median cancer-free survival from 169.5 days to 234 days (P=0.05). At 200 days, the cumulative proportion of vehicle-treated neu transgenic mice was only 38±12%, whereas at the same time 75±11% of Compound 003-treated neu transgenic mice were cancer-free (FIG. 9)."}, "[2]": {"test": "Pharmacokinetics in CD-1 mice after intravenous or oral Compound 003", "assay_type": "in vivo", "protocol": "Each plasma sample (200 μL) was mixed 1:4 with acetone (800 μL) and vortexed for at least 30 seconds. Following centrifugation, the supernatant was transferred into a clean tube and dried under nitrogen. A 50 μL solution of 50% methanol in 200 mM HCl was used to reconstitute the extraction residue, and 35 μL was subjected to analytical HPLC. The analytical column used was a 250×4 mm Lichrospher 100, RP-18 (5 μm) and the guard column was a 4×4 mm Lichrospher 100, RP-18 (5 μm). The mobile phase was degassed automatically by the electronic degasser system. The column was equilibrated and eluted under gradient conditions utilizing a flow rate of 1.0 ml/min at ambient temperature. The linear gradient mobile phase was: 0 minute, 100% 10 mM ammonium phosphate buffer (pH 3.7); 20 minutes, 20% acetonitrile, 80% ammonium phosphate buffer (pH 3.7); 20.1-50 minutes, 28% acetonitrile, 72% water (0.1% HAC). The wavelength of detection was set at 270 nm. Peak width, response time and slit werep, set at >0.03 minutes, 0.5 s and 8 nm, respectively.\nFemale CD-1 mice (6-8 weeks old) (Charles River, Wilmington, Mass.) were housed in a USDA-accredited animal care facility under standard environmental conditions (12-h light/12-h dark photoperiod, 22±1° C., 60±10% relative humidity). All rodents were housed in microisolator cages (Lab Products, Inc., N.J.) containing autoclaved bedding. Mice were allowed free access to autoclaved pellet food and tap water throughout the study. All animal studies are approved by the Parker Hughes Institute Animal Care and Use Committee, and all animal care procedures conformed to the principles outlined in the Guide for the Care and Use of Laboratory Animals (National Research Council;. National Academy Press, Washington D.C. 1996).\nCompound 003 (200 mg/kg) dissolved in DMSO was administered intravenously via tail vein to non-fasted mice or orally via gavage to 12-h fasted mice. Four to six mice per time-point were used for pharmacokinetic studies. Blood samples (˜500 μL) were obtained from the ocular venous plexus by retro-orbital venipuncture at 0, 5, 10, 15, 30, 45 minutes, and 1 h, 1.5 h, 2 h, 4 h, 6 h and 8 h after oral administration. All collected blood-samples were heparinized and centrifuged at 7000×g for 5 minutes to separate the plasma fraction from the whole blood. The plasma samples were then processed immediately using the extraction procedure described above.\nPharmacokinetic modeling and parameter calculations were carried out using the WinNonlin Professional Version 3.0 (Pharsight, Inc., Mountain, Calif.) pharmacokinetics software (Chen, C. L., et al., (1999) Pharm Res. 16:117; Chen, C. L., et al., (1999) Pharm Res. 16:1003; Uckun, F. M., et al., (1999) Clin Cancer Res. 5:2954). An appropriate model was chosen on the basis of the lowest sum of weighted squared residuals, the lowest Schwartz Criterion (SC), the lowest Akaike's Information Criterion (AIC) value, the lowest standard errors of the fitted parameters, and the dispersion of the residuals. The elimination half-life was estimated by linear regression analysis of the terminal phase of the plasma concentration-time profile. The systemic clearance (CL) was determined by dividing the dose by the AUC."}, "[3]": {"test": "Stability in simulated intestinal fluid", "assay_type": "in vitro ADME", "protocol": "Plasma samples, simulated gastric fluid and intestinal fluids (United State Pharmacopeia XXII methods) were separately spiked with COMPOUND 003 to yield final concentrations of 500 μM. Spiked samples were incubated at 37° C. At a predetermined time (5, 10, 15, 30 60 and 120 minutes), an aliquot (200 μl) of the spiked plasma sample was extracted as described above."}, "[4]": {"test_system": "human pre-B acute lymphoblastic leukemia (NALM-6)", "test": "DNA flow cytometry of cell cycle arrest, NALM-6", "assay_type": "cell-based", "conditions": "100 μM, 48 hour", "protocol": "Exponentially growing tumor cells were cultured at 1×10^6 cells/ml in clonogenic medium (RPMI 1640 medium +1% penicillin/streptomycin +10% heat-inactivated fetal bovine serum, 2 mML-glutamine, and 10 mM Hepes buffer) in the presence or absence of 100 μM compound 003 for 48 hour at 37° C., 5% CO2. At 48 h, cells were washed two times in fresh clonogenic medium, trypsinized, fixed in ice cold ethanol and labeled with propidium iodide to quantify their DNA content, as described previously (See, for example, Navara, et al., 2001, Anticancer Drugs. 12:369). Quantitative DNA analysis was performed on a Becton Dickenson Calibur flow cytometer equipped with a Consort 40 computer using the COTFIT program, which includes CELLCY, a cell cycle distribution function that fits DNA content histograms and calculates-the percentages of cells in G, S, and GM phases of the cell cycle, as described, for example, in Uckun et al., 1996, J Biol Chem. 271, 6389."}}}
{"smiles": "COC(=O)C(C)NP(=O)(OCC1OC(n2cc(C)c(=O)[nH]c2=O)CC1N=[N+]=[N-])Oc1ccc(OC)cc1", "note": "(stereo not shown) [Compound 003, 3′-azidothymidine 5′-[p-methoxyphenylmethoxyalaninyl phosphate]]", "values": [{"measurement": "median cancer-free survival", "setting": "[1]; 50 mg/kg/day in food, vehicle 169.5 days, P=0.05", "value": 234, "unit": "days"}, {"measurement": "proportion of mice cancer-free", "setting": "[1]; 50 mg/kg/day, at 200 days, vehicle 38±12%", "value": "75±11", "unit": "%"}, {"measurement": "in vivo transformation of parent compound", "setting": "[2]; i.v. injection of 200 mg/kg", "value": "immediately transformed to Ala-AZT-MP and AZT"}, {"measurement": "plasma concentration of parent compound", "setting": "[2]; oral 200 mg/kg, below the detection limit", "value": "< 500", "unit": "nM"}, {"measurement": "decomposition product", "setting": "[3]; intestinal fluid", "value": "decomposed to form ala-AZT-MP"}, {"measurement": "stability", "setting": "[3]; simulated intestinal fluid, 500 μM, 37° C.", "value": "unstable"}, {"measurement": "cell cycle arrest", "setting": "[4]", "value": "G2M cell cycle arrest"}]}
